Measurements: ChEMBL document CHEMBL1201862, “PubChem BioAssay data set” (2004)
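The compound was tested at five concentrations on cells cultured in 96-well plates, with a 48-hour exposure period. GI50 = concentration required for 50% inhibition of growth.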 Calls of active or inactive are those of the source. No stated cut-off is given here; in the data, active = GI50 up to about 1.1 µM and inactive = higher.

Columns and labels:
Experiment in all cases: NCI-60 cell line screen, 48 h
EKVX = tested on: EKVX
MOLT-4 = tested on: MOLT-4
Hs-578T = tested on: Hs-578T
786-0 = tested on: 786-0
SNB-75 = tested on: SNB-75
NCI-H226 = tested on: NCI-H226
SK-OV-3 = tested on: SK-OV-3
HCT-116 = tested on: HCT-116
OVCAR-5 = tested on: OVCAR-5
RPMI-8226 = tested on: RPMI-8226
IGROV-1 = tested on: IGROV-1
UACC-257 = tested on: UACC-257
BT-549 = tested on: BT-549
OVCAR-4 = tested on: OVCAR-4
TK-10 = tested on: TK-10
K562 = tested on: K562
HCC 2998 = tested on: HCC 2998
OVCAR-8 = tested on: OVCAR-8
NCI-H522 = tested on: NCI-H522
RXF 393 = tested on: RXF 393

Measured: GI50

Cc1ccc(S(=O)(=O)c2ccsc2NC(=O)c2ccccc2)cc1
inactive: EKVX > 55.6 µM | MOLT-4 > 100 µM | Hs-578T 17.3 µM | 786-0 23 µM | SNB-75 28.2 µM | NCI-H226 > 60.4 µM | SK-OV-3 46.9 µM | HCT-116 > 100 µM | OVCAR-5 > 100 µM | RPMI-8226 > 100 µM | IGROV-1 > 43.3 µM | UACC-257 > 100 µM | BT-549 > 100 µM | OVCAR-4 20.9 µM | TK-10 36.3 µM | K562 2.17 µM | HCC 2998 > 100 µM | OVCAR-8 28.6 µM | NCI-H522 > 100 µM

Cc1ccc(NC(=O)COc2ccc(Cl)cc2)cc1Cl
inactive: EKVX 46.3 µM | MOLT-4 > 100 µM | Hs-578T 14.2 µM | 786-0 44.5 µM | SNB-75 59 µM | RXF 393 24.7 µM | NCI-H226 31 µM | SK-OV-3 52.4 µM | HCT-116 14.4 µM | OVCAR-5 68.1 µM | RPMI-8226 87.5 µM | IGROV-1 36.5 µM | UACC-257 83.4 µM | BT-549 70.3 µM | OVCAR-4 > 100 µM | TK-10 27.3 µM | K562 > 100 µM | OVCAR-8 28.9 µM | NCI-H522 75.7 µM

COC1=CC(=O)N(C)C(O)C1(C#N)OC1OC(CO)C(O)C(O)C1O (stereo not drawn)
inactive: EKVX > 100 µM | MOLT-4 > 100 µM | Hs-578T > 100 µM | 786-0 > 100 µM | SNB-75 > 100 µM | NCI-H226 > 100 µM | SK-OV-3 > 100 µM | HCT-116 > 100 µM | OVCAR-5 > 100 µM | RPMI-8226 > 100 µM | IGROV-1 > 100 µM | UACC-257 > 100 µM | BT-549 > 100 µM | OVCAR-4 > 100 µM | TK-10 > 100 µM | K562 > 10 µM | HCC 2998 > 100 µM | OVCAR-8 > 100 µM | NCI-H522 > 100 µM

C[C@H]1CN[C@@H]2[C@@H](C)[C@H]3[C@@H](C[C@H]4[C@@H]5CC[C@H]6C[C@@H](N)CC[C@]6(C)[C@H]5CC[C@]34C)O[C@@]2(O)C1
inactive: EKVX 3.34 µM | MOLT-4 1.69 µM | Hs-578T 1.91 µM | 786-0 1.69 µM | SNB-75 2.44 µM | NCI-H226 2.38 µM | SK-OV-3 6.67 µM | HCT-116 1.29 µM | OVCAR-5 5.47 µM | RPMI-8226 2.28 µM | IGROV-1 2.15 µM | UACC-257 1.85 µM | BT-549 2.19 µM | OVCAR-4 3.75 µM | TK-10 2.53 µM | K562 1.91 µM | HCC 2998 1.8 µM | OVCAR-8 2.04 µM | NCI-H522 2.24 µM

COc1cc(C(c2ccccc2)N2C(=O)CC[C@H]2C(=O)O)cc(OC)c1OC (stereo partly drawn)
inactive: EKVX > 100 µM | MOLT-4 > 100 µM | Hs-578T > 100 µM | 786-0 > 100 µM | SNB-75 > 100 µM | NCI-H226 > 100 µM | SK-OV-3 > 100 µM | HCT-116 > 100 µM | OVCAR-5 > 100 µM | RPMI-8226 > 100 µM | IGROV-1 > 100 µM | UACC-257 > 100 µM | BT-549 > 100 µM | OVCAR-4 > 100 µM | TK-10 > 100 µM | K562 > 100 µM | HCC 2998 > 100 µM | OVCAR-8 > 100 µM | NCI-H522 > 100 µM

CC1=CCC(C)=Nc2nc3ccccc3n21
inactive: EKVX > 100 µM | MOLT-4 > 100 µM | Hs-578T > 100 µM | 786-0 > 100 µM | RXF 393 > 100 µM | NCI-H226 > 100 µM | SK-OV-3 > 100 µM | HCT-116 > 100 µM | OVCAR-5 > 100 µM | RPMI-8226 > 100 µM | IGROV-1 > 100 µM | UACC-257 > 100 µM | BT-549 > 100 µM | OVCAR-4 > 100 µM | TK-10 > 100 µM | K562 > 100 µM | OVCAR-8 > 100 µM | NCI-H522 > 100 µM
